According to US20230183239A1, “ECTONUCLEOTIDE PYROPHOSPHATASE-PHOSPHODIESTERASE 1 (ENPP-1) INHIBITORS AND USES THEREOF” (AbbVie Inc., priority 2017, published 2023):

Molecular target: T1, ENPP1 (Homo sapiens, UniProt P22413)
T1 sequence (P22413 1-925): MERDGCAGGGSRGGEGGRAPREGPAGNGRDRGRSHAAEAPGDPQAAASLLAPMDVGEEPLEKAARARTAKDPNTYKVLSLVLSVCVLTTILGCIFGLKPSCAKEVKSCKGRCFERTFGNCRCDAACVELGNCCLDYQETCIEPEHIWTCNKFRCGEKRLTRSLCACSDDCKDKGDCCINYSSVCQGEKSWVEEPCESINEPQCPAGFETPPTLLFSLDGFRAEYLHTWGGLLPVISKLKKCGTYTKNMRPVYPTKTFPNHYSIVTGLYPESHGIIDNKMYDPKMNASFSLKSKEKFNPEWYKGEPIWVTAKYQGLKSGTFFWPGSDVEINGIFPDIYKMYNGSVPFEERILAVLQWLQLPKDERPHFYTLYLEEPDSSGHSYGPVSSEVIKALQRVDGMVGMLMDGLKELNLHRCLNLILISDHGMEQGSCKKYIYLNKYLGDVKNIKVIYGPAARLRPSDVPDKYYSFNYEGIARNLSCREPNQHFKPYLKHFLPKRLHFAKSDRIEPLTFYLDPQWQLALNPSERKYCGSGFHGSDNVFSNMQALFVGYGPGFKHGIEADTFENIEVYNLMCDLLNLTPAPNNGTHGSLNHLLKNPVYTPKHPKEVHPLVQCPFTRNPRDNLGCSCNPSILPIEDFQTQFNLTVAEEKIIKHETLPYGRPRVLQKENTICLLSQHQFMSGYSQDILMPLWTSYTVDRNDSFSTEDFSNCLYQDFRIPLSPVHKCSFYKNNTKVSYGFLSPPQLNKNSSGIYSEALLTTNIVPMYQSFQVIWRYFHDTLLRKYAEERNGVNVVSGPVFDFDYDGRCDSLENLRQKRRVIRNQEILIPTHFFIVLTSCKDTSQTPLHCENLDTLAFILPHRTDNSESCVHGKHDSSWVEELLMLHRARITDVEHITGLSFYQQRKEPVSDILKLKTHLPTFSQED
Assay: Indirect quantitation of 2',3'-cGAMP hydrolysis (AMP-Glo Assay kit)
Type: biochemical
Conditions: cGAMP substrate; Ki from IC50 by Cheng-Prusoff; read-out: ENPP1 Inhibition -cGAMP: Ki

Row | Ki | SMILES
1 | 100 to 1000 nM | COc1ccc2c(-c3ccc(CN(C4CC4)S(N)(=O)=O)cc3)ncnc2c1 [Example 324, N-cyclopropyl-N-(4-(7-methoxyquinazolin-4-yl)benzyl)sulfamide]
2 | > 1000 nM | NS(=O)(=O)NCCC1CCN(c2ncnc3c2CCN(Cc2ccccc2)C3)CC1 [Example 233, N-(2-(1-(7-benzyl-5,6,7,8-tetrahydropyrido[3,4-d]pyrimidin-4-yl)piperidin-4-yl)ethyl)sulfamide]
3 | < 100 nM | COc1ccc2c(Oc3ccc(NS(N)(=O)=O)cn3)ccnc2c1 [Example 320, N-(6-((7-methoxyquinolin-4-yl)oxy)pyridin-3-yl)sulfamide]
4 | 100 to 1000 nM | COc1cc2ncnc(N3CCC(CCN(C)C)CC3)c2cc1OC [Example 115, 2-(1-(6,7-dimethoxyquinazolin-4-yl)piperidin-4-yl)-N,N-dimethylethan-1-amine]
5 | < 100 nM | COc1ccc2c(Oc3ccc(NS(N)(=O)=O)cc3)ncnc2c1 [Example 322, N-(4-((7-methoxyquinazolin-4-yl)oxy)phenyl)sulfamide]
6 | > 1000 nM | COc1ccc2c(Oc3ccc(NS(N)(=O)=O)cc3)ccnc2c1F [Example 268, N-(4-((8-fluoro-7-methoxyquinolin-4-yl)oxy)phenyl)sulfamide]
7 | > 1000 nM | COc1cc2ncnc(Nc3ccc(CNS(N)(=O)=O)cc3)c2cc1OC [Example 234, N-(4-((6,7-dimethoxyquinazolin-4-yl)amino)benzyl)sulfamide]
8 | > 1000 nM | COc1cc(C#N)c(C(=O)N2CCC(CCNS(N)(=O)=O)CC2)cc1OC [Example 129, N-(2-(1-(2-cyano-4,5-dimethoxybenzoyl)piperidin-4-yl)ethyl)sulfamide]
9 | > 1000 nM | COc1cc2ncnc(Nc3ccc(N4CCNS4(=O)=O)cc3)c2cc1OC [Example 243, 2-(4-((6,7-dimethoxyquinazolin-4-yl)amino)phenyl)-1,2,5-thiadiazolidine 1,1-dioxide]
10 | > 1000 nM | COc1cc2nccc(Oc3ccc(N)cc3)c2cc1OC [Example 341, 4-((6,7-dimethoxyquinolin-4-yl)oxy)aniline]
11 | > 1000 nM | COc1cc2ncnc(N3CCC(CCNS(=O)(=O)N(C)C)CC3)c2cc1OC [Example 143, 2-(1-(6,7-dimethoxyquinazolin-4-yl)piperidin-4-yl)ethan-1-amino(N,N-dimethyl)sulfonamide]
12 | > 1000 nM | COc1cc2ccn(-c3ccc(CNS(N)(=O)=O)cc3)c2cc1OC [Example 186, N-(4-(5,6-dimethoxy-1H-indol-1-yl)benzyl)sulfamide]
13 | < 100 nM | COc1ccc2nccc(-c3ccc4c(c3)CN(S(N)(=O)=O)CC4)c2c1 [Example 358, 7-(6-methoxyquinolin-4-yl)-3,4-dihydroisoquinoline-2(1H)-sulfonamide]
14 | < 100 nM | COc1ccc2c(Oc3ccc(NS(N)(=O)=O)cc3C)ccnc2c1 [Example 326, N-(4-((7-methoxyquinolin-4-yl)oxy)-3-methylphenyl)sulfamide]
15 | 100 to 1000 nM | Cn1cnc2ncnc(-c3ccc(CNS(N)(=O)=O)cc3)c21 [Example 128, N-(4-(7-methyl-7H-purin-6-yl)benzyl)sulfamide]
16 | > 1000 nM | COc1cnc2c(Oc3ccc(NS(N)(=O)=O)cc3)ccnc2c1 [Example 349, N-(4-((7-methoxy-1,5-naphthyridin-4-yl)oxy)phenyl) sulfamide]
17 | > 1000 nM | COc1cnc2c(-c3ccc(CNS(N)(=O)=O)cc3)ccnc2c1 [Example 369, N-(4-(7-methoxy-1,5-naphthyridin-4-yl)benzyl)sulfamide]
18 | > 1000 nM | COc1ccc2c(N3CCc4ccc(NS(N)(=O)=O)cc43)ccnc2c1 [Example 391, N-(1-(7-methoxyquinolin-4-yl)indolin-6-yl)sulfamide]

Row | Ki | SMILES
19 | > 1000 nM | NS(=O)(=O)NCCC1CCN(c2ncnc3c[nH]nc23)CC1 [Example 27, N-(2-(1-(1H-pyrazolo[4,3-d]pyrimidin-7-yl)piperidin-4-yl)ethyl)sulfamide]
20 | > 1000 nM | COc1ccc2c(c1)OCCN2c1ccc(CNS(N)(=O)=O)cc1 [Example 405, N-(4-(7-methoxy-2,3-dihydro-4H-benzo[b][1,4]oxazin-4-yl)benzyl)sulfamide]
21 | > 1000 nM | COc1cc2ncc(-c3ccc(NS(N)(=O)=O)cc3)nc2cc1OC [Example 270, N-(4-(6,7-dimethoxyquinoxalin-2-yl)phenyl)sulfamide]
22 | > 1000 nM | COc1cc2ncn(Cc3ccc(NS(N)(=O)=O)cc3)c(=O)c2cc1OC [Example 165, N-(4-((6,7-dimethoxy-4-oxoquinazolin-3 (4H)-yl)methyl)phenyl) sulfamide]
23 | > 1000 nM | NS(=O)(=O)NCCC1CCN(c2ncnc3ccc(OC(F)(F)F)cc23)CC1 [Example 194, N-(2-(1-(6-(trifluoromethoxy)quinazolin-4-yl)piperidin-4-yl)ethyl)sulfamide]
24 | > 1000 nM | Cc1cc(N2CCC(CCNS(N)(=O)=O)CC2)ncn1 [Example 16, N-(2-(1-(6-methylpyrimidin-4-yl)piperidin-4-yl)ethyl)sulfamide]
25 | > 1000 nM | COc1cc2ncnc(N3CCC(Cn4c(N)nc5ccccc54)CC3)c2cc1OC [Example 252, 1-((1-(6,7-dimethoxyquinazolin-4-yl)piperidin-4-yl)methyl)-1H-benzo[d]imidazol-2-amine]
26 | > 1000 nM | COc1cc2c(cc1OC)N(Cc1ccc(NS(N)(=O)=O)cc1)C(=O)CC2 [Example 173, N-(4-((6,7-dimethoxy-2-oxo-3,4-dihydroquinolin-1 (2H)-yl)methyl)phenyl) sulfamide]
27 | > 1000 nM | COc1cc2nc(-c3ccccc3)nc(N3CCC(CCNS(N)(=O)=O)CC3)c2cc1OC [Example 8, N-(2-(1-(6,7-dimethoxy-2-phenylquinazolin-4-yl)piperidin-4-yl)ethyl)sulfamide]
28 | > 1000 nM | COc1ccc2c(c1)OCCC2Oc1ccc(NS(N)(=O)=O)cc1 (centres unmarked) [Example 399, (4-((7-methoxychroman-4-yl)oxy)phenyl)sulfamide]
29 | > 1000 nM | COc1cc2nccc(C(=O)N3CCC(CCNS(N)(=O)=O)CC3)c2cc1OC [Example 154, N-(2-(1-(6,7-dimethoxyquinoline-4-carbonyl)piperidin-4-yl)ethyl)sulfamide]
30 | > 1000 nM | COc1ccc(-c2cc(N3CCC(CNS(N)(=O)=O)CC3)ncn2)cc1OC [Example 37, N-((1-(6-(3,4-dimethoxyphenyl)pyrimidin-4-yl)piperidin-4-yl)methyl)sulfamide]
31 | 100 to 1000 nM | COc1ccc2c(Oc3ccc(N(Cc4ccccc4)S(N)(=O)=O)cc3)ccnc2c1 [Example 309, N-benzyl-N-(4-((7-methoxyquinolin-4-yl)oxy)phenyl)sulfamide]
32 | 100 to 1000 nM | COc1cc2ncnc(-c3ccc(NS(N)(=O)=O)cc3)c2cc1OC [Example 113, N-(4-(6,7-dimethoxyquinazolin-4-yl)phenyl)sulfamide]
33 | > 1000 nM | COc1cc2nc(-c3ccccn3)nc(N3CCC(CCNS(N)(=O)=O)CC3)c2cc1OC [Example 4, N-(2-(1-(6,7-dimethoxy-2-(pyridin-2-yl)quinazolin-4-yl)piperidin-4-yl)ethyl)sulfamide]
34 | > 1000 nM | CNC(=O)c1ccc2c(N3CCC(CCNS(N)(=O)=O)CC3)ncnc2c1 [Example 163, N-methyl-4-(4-(2-(sulfamoylamino)ethyl)piperidin-1-yl)quinazoline-7-carboxamide]
35 | > 1000 nM | COc1cc2ncc(-c3ccc(CNS(N)(=O)=O)cc3)nc2cc1OC [Example 278, N-(4-(6,7-dimethoxyquinoxalin-2-yl)benzyl)sulfamide]
